Assay results as given in paper PMC7586811 (Journal of Clinical Pharmacology, 2020).
Read-outs that look alike come from different tables or passages of the source.

Columns and labels:
[1] = clinical use; cited from earlier work
[2] = Safety and tolerability in healthy participants; type: in vivo, human; details: for TEAEs considered related to the drug: investigator assessment; for participants who experienced TEAEs: n = 18
CYP3A4 [3] = details: human liver microsomes; ref data on file, Incyte Corporation; cited from earlier work
[4] = cited from earlier work
human OATP1B and OATP1B3 = details: in vitro; ref data on file, Incyte Corporation; cited from earlier work
P‐glycoprotein (P‐gp) [5] = details: in vitro; ref data on file, Incyte Corporation; cited from earlier work
other PI3K isoforms = details: cited from earlier work
P‐glycoprotein (P‐gp) [6] = details: read-out: P‐gp inhibition IC50; in vitro; ref data on file, Incyte Corporation; cited from earlier work
[7] = phase 1/2 study; cited from earlier work
CYP3A4 [8] = details: recombinant human CYP isozymes, earlier in vitro studies; cited from earlier work
major CYPs = details: earlier in vitro studies; cited from earlier work
[9] = not given; remark: listed apart in the source
[10] = dose range from 5 to 45 mg, relapsed or refractory B‐cell malignancies; cited from earlier work
[11] = concomitant rifampin 600 mg versus parsaclisib 20 mg alone
[12] = parsaclisib 20 mg single oral dose alone, fasted, healthy participants, n = 18
[13] = concomitant itraconazole 200 mg versus parsaclisib 10 mg alone
[14] = parsaclisib 10 mg single oral dose alone, fasted, healthy participants, n = 18

CC[C@H](Nc1ncnc2[nH]cnc12)c1nc2cccc(F)c2c(=O)n1-c1ccccc1 [idelalisib]
associated toxicities [1]: transaminitis (increased alanine and aspartate transaminase levels), colitis, diarrhea, and pneumonitis

CO[C@H]1/C=C/O[C@@]2(C)Oc3c(C)c(O)c4c(O)c(c(/C=N/N5CCN(C)CC5)c(O)c4c3C2=O)NC(=O)/C(C)=C\C=C\[C@H](C)[C@H](O)[C@@H](C)[C@@H](O)[C@@H](C)[C@H](OC(C)=O)[C@@H]1C [rifampin, reference compound]
participants reporting generalized pruritus and maculopapular rash ([2]; of all 36 participants, all in cohort 2, considered related to rifampin): 5.6%

C[C@H](Nc1ncnc2[nH]cnc12)c1cc2cccc(Cl)c2c(=O)n1-c1ccccc1 [duvelisib]
associated toxicities [1]: transaminitis (increased alanine and aspartate transaminase levels), colitis, diarrhea, and pneumonitis

CC(=O)N1CCN(c2ccc(OCC3COC(Cn4ccnc4)(c4ccc(Cl)cc4Cl)O3)cc2)CC1 (stereo not shown) [ketoconazole]
effect on parsaclisib metabolism (CYP3A4 [3]): inhibited parsaclisib metabolism

CCC(C)n1ncn(-c2ccc(N3CCN(c4ccc(OCC5COC(Cn6cncn6)(c6ccc(Cl)cc6Cl)O5)cc4)CC3)cc2)c1=O (stereo not shown) [itraconazole, Itraconazole, reference compound]
TEAEs considered related to the drug ([2]; healthy participants): No TEAE was considered related

CCOc1c([C@H](C)n2nc(C)c3c(N)ncnc32)cc(Cl)c(F)c1[C@@H]1CNC(=O)C1 [Parsaclisib]
major metabolites in clinical plasma samples ([4]; clinical plasma samples, ref data on file, Incyte Corporation): no major metabolites were detected | human‐specific metabolite ([4]; in vitro, rat, dog, and human): no human‐specific metabolite identified | substrate of human OATP1B and OATP1B3 (human OATP1B and OATP1B3): not likely a substrate | dose interruptions or reductions, discontinuations, serious AEs, deaths due to TEAEs ([2]; both cohorts): No dose interruptions or reductions, participant discontinuations, serious AEs, or deaths due to TEAEs | participants who experienced TEAEs ([2]; cohort 1: parsaclisib 10 mg + itraconazole 200 mg): 27.8% | participants with grade 4 TEAE (increased creatine phosphokinase) ([2]; cohort 2, day 44, not considered related to parsaclisib or rifampin): 5.6% | participants who experienced TEAEs ([2]; cohort 2: parsaclisib 20 mg + rifampin 600 mg): 44.4% | TEAEs considered related to the drug ([2]; healthy participants): No TEAE was considered related | participants reporting headache (most common TEAE) ([2]; of all 36 participants, all cases in cohort 2 (parsaclisib + rifampin)): 13.9% | overall safety and tolerability ([2]; single‐dose parsaclisib alone or combined with itraconazole or rifampin, healthy participants): safe and well tolerated | P‐gp substrate: concentration at which efflux transport is saturated (P‐glycoprotein (P‐gp) [5]): > 100 µM | selectivity relative to other PI3K isoforms (other PI3K isoforms): approximately 20 000 fold | IC50 (P‐glycoprotein (P‐gp) [6]): 18.1 µM | decrease of AUC0‐∞ [11]: 77% | increase in geometric mean CL/F [11]: approximately 4.4 fold | reduction of Cmax [11]: 43% | shortening of mean t½,β [11]: 71% | CL/F, Geometric Mean [12]: 2.9 L/h | CL/F, Mean ± SD [12]: 3.0 ± 0.5 L/h | decrease in the exposure of parsaclisib (single 20‐mg dose, concomitant rifampin): approximately 4 fold | dose‐limiting toxicities [7]: no dose‐limiting toxicities identified | CYP isozyme responsible for metabolism (CYP3A4 [8]): primarily metabolized by CYP3A4 | inhibition of major CYPs (major CYPs): not an inhibitor of major CYPs tested | decrease in geometric mean CL/F [9, 13]: approximately 51% | increase in geometric mean AUC0‐∞ [9, 13]: 107% | increase in geometric mean Cmax [9, 13]: 21% | prolongation of mean t½,β [9, 13]: 59% | reduction of mean Vz/F [9, 13]: approximately 24% | CL/F, Geometric Mean [9, 14]: 2.9 L/h | CL/F, Mean ± SD [9, 14]: 2.9 ± 0.3 L/h | increase in the exposure of parsaclisib ([9]; single 10‐mg dose, concomitant itraconazole): approximately 2 fold | dose‐exposure relationship at steady state [10]: linear
